Results on 2 compounds are retold here after patent publication US20260194528A1, “PROXIMITY-BASED LABELING OF BIOMOLECULAR CONDENSATE MICROENVIRONMENTS” (THE TRUSTEES OF PRINCETON UNIVERSITY, priority 2022, published 2026).

Type in all cases: cell-based
For one assay, the system named is stress granule proteins. The assay can be described thus: ubiquitination of stress granule proteins during granule formation. The settings on record: HEK243T stably expressing HaloTag-G3BP1, 2 μM TAK243, FIG. 6. As for the experimental part: (§1) A protein-transition metal complex composite of FIG. 2 was prepared as follows. Cells (HEK243T stably expressing HaloTag-G3BP1) were seeded and grown to 95% confluency prior to labeling. The cells were incubated in DMEM media containing 5 μM of the with iridium catalyst of FIG. 2 for one hour. During this period, the iridium catalyst passes through the cell membranes and conjugates with the HaloTag-G3BP1 protein. The cells were then incubated in fresh DMEM media for one hour to remove or minimize noise from any unbound iridium catalyst.
(§2) A first portion of the Ir-catalyst loaded cells were subsequently transferred to DMEM media pre-dosed with 2 μM TAK243 and incubated for another hour. The remaining second portion (control) was dosed with the same volume of DMSO. The cells were stressed with […] NaAsO2 in DMEM for 30 minutes. Following stressing, the media was replaced with fresh DMEM for cell recovery at the indicated time. During the stressing period, the cells were dosed with protein labeling agent of 500 μM biotin-diazirine in the media 30 minutes prior to the individual time point of photolabeling. During photolabeling, the cells were subjected to 10 minutes of 450 nm blue light irradiation. FIG. 4 illustrates the foregoing testing protocol.
General proteomics preparation protocol was followed. 600 μg of total protein was loaded for streptavidin enrichment. […]

The test system of the next assay is stress granules. In words: stress granule disassembly after NaAsO2 stress. As to conditions: HEK243T stably expressing HaloTag-G3BP1; 2 μM TAK243; stressed with 500 mM NaAsO2 for 30 minutes; FIG. 6. As for the experimental part: as §1, §2
Another assay concerns HECT E3 ligase. In words: effect of HECT E3 ligase inhibition or knockdown on stress granule disassembly. As to conditions: HECT E3 ligase inhibition or siRNA knockdown; FIG. 10, FIG. 11. From the text: With this information provided by the interactome mapping, E3 ligase inhibitor Heclin was employed to determine any effects on HECT E3 ligase function relative to stress granule disassembly, as illustrated in FIG. 9.

With `NS(=O)(=O)OC[C@H]1C[C@@H](Nc2ccnc3cc(-c4cccc(SC(F)(F)F)c4)nn23)[C@H](O)[C@@H]1O` [TAK243], in the assay with stress granule proteins, the protein ubiquitination entry was “undermined or inhibited”. Further, the granule disassembly result with stress granules was “delayed”. In the case of `CCc1ccc(C=CC(=O)Nc2ccc(C(C)=O)cc2)o1` [Heclin], in the assay with HECT E3 ligase, the stress granule disassembly entry is given as “delays stress granule disassembly”.
